From paper PMC4032177 (Journal of medicinal chemistry, 2013)
One block for each molecule: values may come before it.

Experiments:
[1] = biological target: T1, DLK (Homo sapiens, UniProt Q12852); test: DLK kinase inhibition; format: biochemical
T1 sequence (Q12852 1-859): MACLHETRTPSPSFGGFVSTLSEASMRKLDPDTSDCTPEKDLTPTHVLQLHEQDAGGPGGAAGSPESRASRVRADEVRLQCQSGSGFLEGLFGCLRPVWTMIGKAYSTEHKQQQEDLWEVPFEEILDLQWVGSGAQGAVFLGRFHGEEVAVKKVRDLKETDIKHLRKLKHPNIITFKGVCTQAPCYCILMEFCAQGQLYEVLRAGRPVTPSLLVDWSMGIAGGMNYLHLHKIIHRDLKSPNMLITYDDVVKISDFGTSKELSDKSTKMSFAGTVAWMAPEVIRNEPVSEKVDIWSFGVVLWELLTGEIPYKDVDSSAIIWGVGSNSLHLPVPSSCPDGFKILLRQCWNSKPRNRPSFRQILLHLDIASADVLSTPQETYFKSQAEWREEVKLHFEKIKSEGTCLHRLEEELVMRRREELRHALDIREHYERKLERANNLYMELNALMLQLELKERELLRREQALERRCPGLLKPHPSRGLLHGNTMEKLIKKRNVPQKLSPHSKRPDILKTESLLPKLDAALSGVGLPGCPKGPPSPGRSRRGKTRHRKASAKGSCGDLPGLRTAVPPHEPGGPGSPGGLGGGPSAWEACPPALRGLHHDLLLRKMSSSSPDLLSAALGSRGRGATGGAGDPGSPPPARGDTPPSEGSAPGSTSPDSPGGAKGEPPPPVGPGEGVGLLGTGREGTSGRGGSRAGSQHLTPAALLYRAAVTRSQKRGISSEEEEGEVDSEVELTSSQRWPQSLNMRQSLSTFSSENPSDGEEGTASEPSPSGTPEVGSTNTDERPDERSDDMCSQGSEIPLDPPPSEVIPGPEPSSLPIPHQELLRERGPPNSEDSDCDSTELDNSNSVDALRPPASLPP

[2] = biological target: AKT1 (Homo sapiens, UniProt P31749); test: Kinase specificity profiling; format: binding
[3] = biological target: CDK11 (Homo sapiens, UniProt Q9BWU1); test: DiscoverRx ScanMax kinome binding scan; conditions: read-out: CDK11 % inhibition (ScanMax)
[4] = biological target: ERK1 (Homo sapiens, UniProt P27361); test: Kinase specificity profiling; format: binding
[5] = biological target: MLK3 (Homo sapiens, UniProt Q16584); test: Radiometric MLK3 kinase inhibition assay; format: biochemical
Sequence of MLK3 (Q16584 whole entry): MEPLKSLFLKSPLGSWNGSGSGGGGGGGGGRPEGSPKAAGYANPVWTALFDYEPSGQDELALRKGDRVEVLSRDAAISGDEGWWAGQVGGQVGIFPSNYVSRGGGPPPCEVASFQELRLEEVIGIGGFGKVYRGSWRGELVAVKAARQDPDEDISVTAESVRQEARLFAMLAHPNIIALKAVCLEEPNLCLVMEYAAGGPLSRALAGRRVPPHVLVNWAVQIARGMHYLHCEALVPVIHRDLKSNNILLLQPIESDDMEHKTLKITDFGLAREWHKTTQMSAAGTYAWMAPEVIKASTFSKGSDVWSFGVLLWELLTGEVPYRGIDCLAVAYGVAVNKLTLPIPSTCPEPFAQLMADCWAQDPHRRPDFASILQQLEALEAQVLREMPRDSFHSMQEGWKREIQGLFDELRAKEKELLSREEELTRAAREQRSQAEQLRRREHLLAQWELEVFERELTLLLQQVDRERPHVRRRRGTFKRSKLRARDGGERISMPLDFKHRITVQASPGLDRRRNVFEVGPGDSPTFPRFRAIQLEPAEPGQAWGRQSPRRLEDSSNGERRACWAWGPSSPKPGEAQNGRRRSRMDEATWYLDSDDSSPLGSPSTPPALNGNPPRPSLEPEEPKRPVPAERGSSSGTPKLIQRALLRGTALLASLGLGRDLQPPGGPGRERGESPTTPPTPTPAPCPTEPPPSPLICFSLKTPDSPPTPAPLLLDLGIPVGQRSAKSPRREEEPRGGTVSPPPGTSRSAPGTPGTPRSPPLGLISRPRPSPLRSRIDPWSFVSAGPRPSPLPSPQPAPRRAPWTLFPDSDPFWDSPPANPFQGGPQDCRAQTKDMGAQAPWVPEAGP

[6] = biological target: T1, DLK; test: DiscoverRx ScanMax kinome binding scan
[7] = biological target: EGFR (Homo sapiens, UniProt P00533); test: Kinase specificity profiling; format: binding
Sequence of EGFR (P00533 25-1210): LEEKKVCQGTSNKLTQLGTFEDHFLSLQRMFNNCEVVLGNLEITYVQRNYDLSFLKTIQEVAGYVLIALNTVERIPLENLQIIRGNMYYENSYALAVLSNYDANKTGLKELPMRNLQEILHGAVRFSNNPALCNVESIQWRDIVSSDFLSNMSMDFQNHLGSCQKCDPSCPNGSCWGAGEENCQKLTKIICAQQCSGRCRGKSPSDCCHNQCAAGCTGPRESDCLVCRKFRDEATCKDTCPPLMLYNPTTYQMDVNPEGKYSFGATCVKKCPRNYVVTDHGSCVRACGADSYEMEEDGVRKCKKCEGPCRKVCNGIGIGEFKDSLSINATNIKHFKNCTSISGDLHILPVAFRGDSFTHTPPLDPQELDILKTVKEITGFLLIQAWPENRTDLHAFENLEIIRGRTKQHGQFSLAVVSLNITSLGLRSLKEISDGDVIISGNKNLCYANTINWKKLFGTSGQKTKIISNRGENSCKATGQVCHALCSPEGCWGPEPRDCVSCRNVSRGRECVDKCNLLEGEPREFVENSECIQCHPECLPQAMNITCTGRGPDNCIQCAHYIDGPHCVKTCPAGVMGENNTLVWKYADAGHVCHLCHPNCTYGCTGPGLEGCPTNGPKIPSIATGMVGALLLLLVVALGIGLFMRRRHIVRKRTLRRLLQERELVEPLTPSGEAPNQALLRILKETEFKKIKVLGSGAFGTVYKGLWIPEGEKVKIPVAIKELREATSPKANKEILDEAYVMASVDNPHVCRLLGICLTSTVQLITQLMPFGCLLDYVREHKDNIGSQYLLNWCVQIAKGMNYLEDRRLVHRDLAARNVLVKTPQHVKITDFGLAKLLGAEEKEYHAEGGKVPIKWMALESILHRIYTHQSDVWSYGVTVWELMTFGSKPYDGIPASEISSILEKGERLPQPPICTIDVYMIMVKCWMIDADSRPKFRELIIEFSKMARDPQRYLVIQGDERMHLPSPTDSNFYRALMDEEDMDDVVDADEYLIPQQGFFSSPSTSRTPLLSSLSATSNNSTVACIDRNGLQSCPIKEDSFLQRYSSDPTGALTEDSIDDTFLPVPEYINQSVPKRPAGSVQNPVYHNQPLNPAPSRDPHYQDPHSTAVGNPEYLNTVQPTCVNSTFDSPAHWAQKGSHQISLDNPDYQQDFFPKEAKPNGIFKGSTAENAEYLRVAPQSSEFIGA

[8] = tested on: phosphorylated JNK (pJNK) in brain; test: Inhibition of JNK phosphorylation in HIV-Tat treated mice; format: in vivo, C57BL/6 mice; conditions: 10 mg/kg i.p. every twelve hours
[9] = biological target: BRAF (Homo sapiens, UniProt P15056); test: Kinase specificity profiling; format: binding
[10] = biological target: AKT2 (Homo sapiens, UniProt P31751); test: Kinase specificity profiling; format: binding
[11] = biological target: ERK2 (Homo sapiens, UniProt P28482); test: Kinase specificity profiling; format: binding
Sequence of ERK2 (P28482 whole entry): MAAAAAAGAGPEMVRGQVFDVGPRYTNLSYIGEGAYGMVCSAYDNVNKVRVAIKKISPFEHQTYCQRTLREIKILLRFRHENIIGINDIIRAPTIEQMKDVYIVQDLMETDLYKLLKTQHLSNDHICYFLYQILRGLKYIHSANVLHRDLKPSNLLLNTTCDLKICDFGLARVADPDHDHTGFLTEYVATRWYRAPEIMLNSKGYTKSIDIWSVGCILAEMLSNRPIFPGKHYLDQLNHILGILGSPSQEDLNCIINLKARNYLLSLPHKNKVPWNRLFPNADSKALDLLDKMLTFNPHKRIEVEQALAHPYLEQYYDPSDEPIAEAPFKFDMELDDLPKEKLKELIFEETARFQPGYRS

[12] = biological target: AKT3 (Homo sapiens, UniProt Q9Y243); test: Kinase specificity profiling; format: binding
[13] = biological target: LRRK2 (Homo sapiens, UniProt Q5S007); test: DiscoverRx ScanMax kinome binding scan; conditions: read-out: LRRK2 % inhibition of binding (ScanMax), 1 μM
Sequence of LRRK2 (Q5S007 whole entry): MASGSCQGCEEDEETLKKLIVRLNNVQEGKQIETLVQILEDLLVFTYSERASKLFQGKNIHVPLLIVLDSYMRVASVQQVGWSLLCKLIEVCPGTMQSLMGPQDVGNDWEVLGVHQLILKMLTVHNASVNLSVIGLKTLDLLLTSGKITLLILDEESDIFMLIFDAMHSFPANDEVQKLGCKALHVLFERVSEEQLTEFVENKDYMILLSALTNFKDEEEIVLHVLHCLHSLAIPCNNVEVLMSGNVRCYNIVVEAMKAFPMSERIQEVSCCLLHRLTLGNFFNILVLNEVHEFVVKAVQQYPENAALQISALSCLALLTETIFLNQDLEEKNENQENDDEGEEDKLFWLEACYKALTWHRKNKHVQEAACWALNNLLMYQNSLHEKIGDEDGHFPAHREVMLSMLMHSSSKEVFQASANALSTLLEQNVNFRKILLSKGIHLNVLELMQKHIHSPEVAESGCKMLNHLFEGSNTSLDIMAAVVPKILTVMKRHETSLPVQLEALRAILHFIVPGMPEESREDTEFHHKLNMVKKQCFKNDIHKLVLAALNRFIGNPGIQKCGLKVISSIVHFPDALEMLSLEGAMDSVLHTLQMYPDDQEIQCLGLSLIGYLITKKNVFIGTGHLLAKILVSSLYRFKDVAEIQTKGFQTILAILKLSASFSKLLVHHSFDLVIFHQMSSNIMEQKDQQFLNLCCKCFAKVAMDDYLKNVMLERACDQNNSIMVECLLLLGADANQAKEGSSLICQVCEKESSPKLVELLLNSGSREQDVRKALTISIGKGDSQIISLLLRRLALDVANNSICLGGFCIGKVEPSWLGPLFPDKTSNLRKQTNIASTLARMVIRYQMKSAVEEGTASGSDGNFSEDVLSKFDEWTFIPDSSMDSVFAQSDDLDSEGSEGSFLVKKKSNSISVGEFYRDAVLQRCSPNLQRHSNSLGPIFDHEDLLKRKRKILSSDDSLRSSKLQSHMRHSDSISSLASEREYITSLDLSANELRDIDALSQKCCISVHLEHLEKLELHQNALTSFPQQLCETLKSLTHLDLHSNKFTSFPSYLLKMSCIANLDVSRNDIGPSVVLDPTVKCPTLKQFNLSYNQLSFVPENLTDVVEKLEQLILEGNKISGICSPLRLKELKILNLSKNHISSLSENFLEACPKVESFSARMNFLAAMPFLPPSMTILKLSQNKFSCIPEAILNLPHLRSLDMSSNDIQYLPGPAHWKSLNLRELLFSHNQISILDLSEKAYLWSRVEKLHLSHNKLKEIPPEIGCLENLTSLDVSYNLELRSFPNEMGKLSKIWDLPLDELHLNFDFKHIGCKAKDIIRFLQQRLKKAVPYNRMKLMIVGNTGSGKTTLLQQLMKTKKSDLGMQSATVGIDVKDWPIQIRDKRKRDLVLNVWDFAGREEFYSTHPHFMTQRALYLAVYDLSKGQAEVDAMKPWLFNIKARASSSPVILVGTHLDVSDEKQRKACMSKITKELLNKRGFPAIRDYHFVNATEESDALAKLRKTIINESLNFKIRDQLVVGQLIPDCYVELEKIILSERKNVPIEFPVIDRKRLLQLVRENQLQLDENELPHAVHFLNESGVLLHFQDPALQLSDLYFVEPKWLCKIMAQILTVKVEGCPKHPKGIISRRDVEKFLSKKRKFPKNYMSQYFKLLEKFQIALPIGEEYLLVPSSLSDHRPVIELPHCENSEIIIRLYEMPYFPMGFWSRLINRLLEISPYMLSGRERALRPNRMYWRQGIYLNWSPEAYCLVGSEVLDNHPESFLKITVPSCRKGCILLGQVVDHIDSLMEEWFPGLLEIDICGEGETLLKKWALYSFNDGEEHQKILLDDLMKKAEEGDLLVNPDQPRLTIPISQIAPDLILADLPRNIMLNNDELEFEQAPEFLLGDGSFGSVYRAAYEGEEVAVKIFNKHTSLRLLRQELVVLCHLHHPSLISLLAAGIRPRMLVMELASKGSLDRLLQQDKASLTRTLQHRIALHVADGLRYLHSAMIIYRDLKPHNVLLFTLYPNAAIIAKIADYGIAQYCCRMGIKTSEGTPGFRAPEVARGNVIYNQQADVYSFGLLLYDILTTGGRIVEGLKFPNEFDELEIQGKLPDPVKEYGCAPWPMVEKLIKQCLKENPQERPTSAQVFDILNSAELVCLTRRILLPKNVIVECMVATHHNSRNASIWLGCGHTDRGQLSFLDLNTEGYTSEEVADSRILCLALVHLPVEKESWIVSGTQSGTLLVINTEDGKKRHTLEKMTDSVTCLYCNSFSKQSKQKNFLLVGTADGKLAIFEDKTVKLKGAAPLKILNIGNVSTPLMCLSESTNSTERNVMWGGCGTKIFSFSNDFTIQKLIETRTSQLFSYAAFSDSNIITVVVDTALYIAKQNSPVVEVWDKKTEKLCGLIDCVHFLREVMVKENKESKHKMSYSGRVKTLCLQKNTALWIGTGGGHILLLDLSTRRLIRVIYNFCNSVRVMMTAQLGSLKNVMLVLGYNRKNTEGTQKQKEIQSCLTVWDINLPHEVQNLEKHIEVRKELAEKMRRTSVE

IC50 [1]: 150 nM
Activity against AKT1 [2]: essentially inactive
inhibition at 1 µM [3]: > 90%
Activity against ERK1 [4]: essentially inactive
Ki [5]: ~10 nM
Kd [6]: 70 nM
Activity against EGFR [7]: essentially inactive
Activity against BRAF [9]: essentially inactive
Activity against AKT2 [10]: essentially inactive
Activity against ERK2 [11]: essentially inactive
Activity against AKT3 [12]: essentially inactive
SMILES: CN1CCN(Cc2ccc(-c3cnc4[nH]cc(-c5ccc6[nH]ccc6c5)c4c3)cc2)CC1 [Compound 1, 3-(1H-Indol-5-yl)-5-(4-((4-methylpiperazin-1-yl)methyl)phenyl)-1H-pyrrolo[2,3-b]pyridine]
pJNK levels in saline-treated animals [8]: no effect

inhibition at 1 µM [13]: > 99%
SMILES: CCSCc1ccc2c(c1)c1c3c(c4c5cc(CSCC)ccc5n5c4c1n2[C@H]1C[C@](O)(C(=O)OC)[C@]5(C)O1)CNC3=O [Compound 2, (9S,10R,12R)-9,12-Epoxy-1H-diindolo[1,2,3-fg:3′,2′,1′-kl]pyrrolo[3,4-i][1,6]benzodiazocine-10-carboxylic acid, 5,16-bis[(ethylthio)methyl]-2,3,9,10,11,12-hexahydro-10-hydroxy-9-methyl-1-oxo methyl ester]

IC50 [5]: 40 to 120 nM
SMILES: COc1cc(-c2cnc3[nH]c(=O)n(-c4ccc5[nH]ccc5c4)c3n2)cc(OC)c1OC [Compound 7, 1-(1H-Indol-5-yl)-6-(3,4,5-trimethoxyphenyl)-1H-imidazo[4,5-b]pyrazin-2(3H)-one]
